From US20150376198A1, “MODULATORS OF VASOPRESSIN RECEPTORS WITH THERAPEUTIC POTENTIAL” (priority 2013, published 2015)
pIC50, pKi: −log10 of the molar value. Like-named read-outs stand apart in the source and are kept apart here.

How the values were obtained:
[1] = target: V2 receptor (Homo sapiens, UniProt P30518); assay: V2 receptor binding (primary binding at 10 μM and Ki); settings: for inhibition at 10 µM: read-out: V2 binding, mean % inhibition
Description: (§1) Data represent Ki values (nM) or mean % inhibition (indicated as %) for exemplary compounds of formula (I) tested versus receptor subtypes.
(§2) The default concentration for primary binding experiments was 10 μM.
(§3) See Examples for further details.

[2] = target: T1, OT receptor (Homo sapiens, UniProt P30559); assay: OT receptor binding (primary binding at 10 μM and Ki); settings: for inhibition at 10 µM: read-out: OT binding, mean % inhibition
T1 sequence (P30559 1-389): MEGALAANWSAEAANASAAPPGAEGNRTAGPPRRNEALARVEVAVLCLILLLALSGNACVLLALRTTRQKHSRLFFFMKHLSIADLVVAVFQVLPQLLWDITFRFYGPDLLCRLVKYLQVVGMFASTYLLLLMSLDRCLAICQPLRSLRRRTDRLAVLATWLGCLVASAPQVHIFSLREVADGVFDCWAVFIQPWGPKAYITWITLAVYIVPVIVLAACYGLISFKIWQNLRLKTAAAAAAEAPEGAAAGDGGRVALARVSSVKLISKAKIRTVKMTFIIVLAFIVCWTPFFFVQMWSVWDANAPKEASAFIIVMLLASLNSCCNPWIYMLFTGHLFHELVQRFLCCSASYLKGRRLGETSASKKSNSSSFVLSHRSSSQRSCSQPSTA
Description: as §2, §3

[3] = target: T2, human V1a receptor (Homo sapiens, UniProt P37288); assay: Vasopressin V1a receptor binding assay (3H-AVP competition, CHO cells); settings: for inhibition at 10 µM: read-out: V1A binding, mean % inhibition
T2 construct: expressed in transfected cells; host or cells: CHO cells (G418-selected hV1a cell line)
Description: as §1, §2
Vasopressin V1a Receptor Binding Assay.
A cell line expressing the human Via receptor in CHO cells is used. The hV1a cDNA sequence is described by Thibonnier et al., (1994), and the expression method is the same as described by Morel et al. (1992). The hV1a cell line is grown in alpha-MEM with 10% fetal bovine serum and 250 ug/ml G418 (Gibco, Grand Island, N.Y., USA). For competitive binding assay, hV1a cells are plated into 6-well culture plate at 1:10 dilution from a confluency flask, and maintained in culture for at least two days. Culture medium is then removed, cells washed with 2 ml binding buffer (35 mM Hepes, 0.25% BSA, 1× DMEM, PH=7.0). To each well, 990 μl binding buffer containing 1 nM 3H-AVP is added, followed by 10 μl series diluted Example compounds dissolved in DMSO. All incubations are done in triplicate and dose-inhibition curves consisting of total binding (DMSO) and 5 concentrations (0.1, 1.0, 10, 100, and 1000 nM) of test agents encompassing the IC50. 100 nM cold AVP (Sigma) is used to assess non-specific binding. Cells are incubated for 45 minutes at 37° C., assay mixture is removed and each well is washed three times with PBS (pH=7.4). 1 ml 2% SDS was added per well, plates were let sit for 30 minutes. The whole content of a well is transferred to a scintillation vial. Each well is rinsed with 0.5 ml PBS which is then added to the corresponding vial. Scintillation fluid (Ecoscint) is then added at 3 ml per vial. Samples are counted in a liquid scintillation counter (Beckman LS3801). IC50 values are calculated by Prism Curve fitting software.

[4] = target: human Arginine Vasopressin Receptor 1a (AVPR1a) (Homo sapiens, UniProt P37288); assay: cell-based; settings: read-out: V1a-R IC50
human Arginine Vasopressin Receptor 1a (AVPR1a), sequence (P37288 whole entry): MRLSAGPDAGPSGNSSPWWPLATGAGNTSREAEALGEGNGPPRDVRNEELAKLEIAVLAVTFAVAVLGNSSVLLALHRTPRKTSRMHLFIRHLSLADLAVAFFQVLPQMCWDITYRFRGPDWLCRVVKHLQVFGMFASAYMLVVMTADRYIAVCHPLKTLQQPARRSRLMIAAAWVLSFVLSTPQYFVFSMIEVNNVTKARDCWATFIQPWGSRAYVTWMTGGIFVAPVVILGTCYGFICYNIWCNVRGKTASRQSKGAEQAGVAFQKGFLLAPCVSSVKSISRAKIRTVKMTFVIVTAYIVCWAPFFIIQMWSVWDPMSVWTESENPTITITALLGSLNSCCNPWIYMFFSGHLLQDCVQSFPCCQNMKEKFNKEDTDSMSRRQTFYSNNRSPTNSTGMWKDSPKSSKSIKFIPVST

V2 receptor, sequence (P30518 whole entry): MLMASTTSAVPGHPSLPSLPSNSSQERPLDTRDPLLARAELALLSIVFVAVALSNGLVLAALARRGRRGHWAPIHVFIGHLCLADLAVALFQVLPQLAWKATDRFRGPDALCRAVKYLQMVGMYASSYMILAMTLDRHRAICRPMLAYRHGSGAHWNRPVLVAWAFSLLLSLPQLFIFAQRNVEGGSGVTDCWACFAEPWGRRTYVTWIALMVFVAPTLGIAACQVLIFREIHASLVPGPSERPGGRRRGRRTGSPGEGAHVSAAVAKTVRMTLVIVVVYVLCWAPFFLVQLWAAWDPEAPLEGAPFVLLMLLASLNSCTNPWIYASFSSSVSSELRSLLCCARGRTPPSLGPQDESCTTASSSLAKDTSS
T2 sequence (P37288 whole entry): as the sequence (P37288 whole entry) above

Row | Compound | inhibition at 10 µM ([1]; at 10 μM) [%] | pKi ([2]; read-out: OT binding Ki) | pKi [3] | other results
1 | COCCN(C(=O)N1CCN(c2ccccc2C)CC1)c1ccc(OC)cc1 [Compound 4] | 24.5 | 7.68 | 8.00 | 
2 | COc1ccc(N(CC2CC2)C(=O)N2CCN(c3ccccc3C)CC2)cc1 [Compound 3] |  | 9.00 | 9.05 | pKi [1]: 6.15
3 | COc1ccccc1N1CCN(C(=O)N(CC2CC2)c2ccc(OC(F)(F)F)cc2)CC1 [Compound 32] |  | 8.64 | 7.96 | pKi [1]: 5.77
4 | Cc1cc(-c2nnc(C)n2-c2ccccc2)ccc1CNC(=O)N1CCN(Cc2cc(O)cc(O)c2)CC1 [Compound 11] |  |  |  | inhibition at 10 µM ([2]; at 10 μM): 14.8%
5 | CCN(C(=O)N1CCN(c2ncccc2Cl)CC1)c1ccc(OC)cc1 [Compound 16] | 12.7 | 5.64 | 5.94 | 
6 | COc1ccccc1N(CC1CC1)C(=O)N1CCN(c2ccccc2C)CC1 [Compound 28] |  | 7.29 | 6.97 | pKi [1]: 5.30
7 | COc1ccc(N(CC2CC2)C(=O)C2CCN(Cc3ccccc3C(F)(F)F)C2)cc1 (stereo not shown) [Compound 34] |  |  | 7.72 | pKi [1]: 6.27; pKi [2]: 7.61
8 | CCN(C(=O)C1CCN(c2ncccc2C(F)(F)F)CC1)c1ccc(OC)cc1 [Compound 24] | 23.3 | 6.58 | 5.93 | 
9 | CCN(C(=O)N1CCN(c2ncccn2)CC1)c1ccc(OC)cc1 [Compound 22] | 6.6 |  |  | inhibition at 10 µM ([2]; at 10 μM): 27.7%; pKi ([3]; read-out: V1A binding Ki): 5.80
10 | Cc1ccccc1N1CCN(C(=O)N(CC2CC2)c2ccc(Cl)cc2)CC1 [Compound 27] |  | 8.64 | 9.00 | pKi [1]: 5.42
11 | CCN(C(=O)N1CCN(c2ccccc2C)CC1)c1ccc(OC)cc1 [Compound 2] | 33.6 | 7.89 | 8.00 | 
12 | COc1ccc(N(CC2CC2)C(=O)N2CCN(c3cc(Cl)ccc3C)CC2)cc1 [Compound 31] |  | 8.22 | 8.30 | pKi [1]: 5.13
13 | CCN(C(=O)N1CCN(c2ccccn2)CC1)c1ccc(OC)cc1 [Compound 17] | 17.9 | 6.93 | 7.10 | 
14 | O=C(OCc1ccccc1)N1CCC(C(=O)N(CC2CC2)CC2CCCO2)CC1 (stereo not shown) [Compound 15] | 12.8 |  |  | inhibition at 10 µM ([2]; at 10 μM): 2.8%; inhibition at 10 µM [3]: 19%
15 | COc1ccc(NC(=O)N2CCN(c3ccccc3C)CC2)cc1 [Compound 1] |  |  |  | inhibition at 10 µM ([2]; at 10 μM): 12.8%; inhibition at 10 µM [3]: 34.1%
16 | Cc1cc(C(=O)N(CC2CC2)CC2CCCO2)ccc1CNC(=O)N1CCN(Cc2cc(O)cc(O)c2)CC1 (stereo not shown) [Compound 13] | 13.6 |  |  | inhibition at 10 µM ([2]; at 10 μM): 16.1%
17 | CCN(C(=O)N1CCN(C(=O)c2ccccc2)CC1)c1ccc(OC)cc1 [Compound 9] |  |  |  | inhibition at 10 µM ([2]; at 10 μM): 22.3%
18 | CCN(C(=O)N1CCCN(c2ncccc2C(F)(F)F)CC1)c1ccc(OC)cc1 [Compound 20] | 33 | 6.48 | 6.07 | 
19 | CCN(C(=O)N1CCN(Cc2ccccc2)CC1)c1ccc(OC)cc1 [Compound 8] |  | 5.93 |  | inhibition at 10 µM [3]: 35.1%
20 | CCN(C(=O)N1CCN(c2ncccc2C#N)CC1)c1ccc(OC)cc1 [Compound 19] | 5.7 | 6.12 | 6.06 | 
21 | CCN(C(=O)N1CCN(C(=O)OC(C)(C)C)CC1)c1ccc(OC)cc1 [Compound 10] |  |  |  | inhibition at 10 µM ([2]; at 10 μM): 17.1%; inhibition at 10 µM [3]: 2.2%
22 | CCN(C(=O)N1CCN(C(=O)C23CC4CC(CC(C4)C2)C3)CC1)c1ccc(OC)cc1 [Compound 25] | 40.4 |  |  | inhibition at 10 µM ([2]; at 10 μM): 40.7%; pKi ([3]; read-out: V1A binding Ki): 5.41
23 | COc1ccc(N(CC2CC2)C(=O)N2CCN(c3ncc(Cl)cc3Cl)CC2)cc1 [Compound 33] |  | 8.39 | 8.52 | pKi [1]: 6.69

Row | Compound | inhibition at 10 µM ([1]; at 10 μM) [%] | pKi ([2]; read-out: OT binding Ki) | pKi [3] | other results
24 | COc1ccc(N(CC2CC2)C(=O)C2CCN(Cc3ccccc3Cl)C2)cc1 (stereo not shown) [Compound 35] | < 50 | 7.43 | 7.15 | 
25 | CCN(C(=O)N1CCN(c2ncccc2C(F)(F)F)CC1)c1ccc(OC)cc1 [Compound 6] | 33 | 7.35 | 6.95 | 
26 | Cc1ccccc1N1CCN(C(=O)N(CC2CC2)c2ccc(OC(F)(F)F)cc2)CC1 [Compound 29] |  | 7.21 | 7.92 | pKi [1]: 6.80
27 | COc1ccc(N(CC2CC2)C(=O)N2CCN(c3ccccc3C(F)(F)F)CC2)cc1 [Compound 30] |  | 8.64 | 7.96 | pKi [1]: 7.12
28 | Cc1ccc(N(CC2CC2)C(=O)N2CCN(c3ccccc3C)CC2)cc1 [Compound 26] |  | 8.32 | 8.52 | pKi [1]: 5.73
29 | CCN(C(=O)N1CCN(c2ncccc2C)CC1)c1ccc(OC)cc1 [Compound 21] | 24.3 | 6.69 | 6.94 | 
30 | Cc1ccccc1N1CCN(C(=O)N(CC2CC2)CC2CCCO2)CC1 (stereo not shown) [Compound 5] | 17.7 | 6.49 | 6.11 | 
31 | COC(=O)CC(NC(=O)OC(C)(C)C)C(=O)N1CCN(c2ccccc2C)CC1 (stereo not shown) [Compound 12] |  |  |  | inhibition at 10 µM ([2]; at 10 μM): 10.6%
32 | CCN(C(=O)C1CCN(C(=O)OCc2ccccc2)CC1)c1ccc(OC)cc1 [Compound 18] |  |  |  | inhibition at 10 µM [1]: 12.8%; inhibition at 10 µM [2]: 2.8%; inhibition at 10 µM [3]: 19%
33 | COc1ccc(-n2c(C)nnc2-c2ccc(CNC(=O)N3CCN(Cc4cc(O)cc(O)c4)CC3)c(C)c2)cn1 [Compound 14] | 5.8 |  |  | inhibition at 10 µM ([2]; at 10 μM): 19.6%
34 | O=C(N1CCC(O)(c2ccccc2)CC1)N1CCCCc2cc(Cl)ccc21 [Compound 133] |  |  |  | pIC50 [4]: 6.86
35 | Cc1cnc(N2CCC(C(=O)N(CC3CC3)c3ccc(Cl)cc3)CC2)nc1 [Compound 166] |  |  |  | pIC50 [4]: 7.42
36 | C#CCN(C(=O)C1CCN(c2nc(C)cc(C)n2)CC1)c1ccc(Cl)cc1 [Compound 201] |  |  |  | pIC50 [4]: 7.55
37 | O=C(c1cccc(F)c1F)N1CCC(C(=O)N2CCCCc3cc(Cl)ccc32)CC1 [Compound 91] |  |  |  | pIC50 [4]: 5.73
38 | Cc1cc(C)nc(N2CCC(C(=O)N(CC3CC3)c3ccc(Cl)cc3)CC2)n1 [Compound 151] |  |  |  | pIC50 [4]: 8.10
39 | N#Cc1ccc(C(=O)N2CCC(C(=O)N3CCCCc4cc(Cl)ccc43)CC2)c(F)c1 [Compound 114] |  |  |  | pIC50 [4]: 5.02
40 | O=C(C1CCN(c2ncnc3ccc(F)cc23)CC1)N(CC1CC1)c1ccc(Cl)cc1 [Compound 205] |  |  |  | pIC50 [4]: 7.13
41 | O=C(C1CCN(c2cnccn2)CC1)N(CC1CC1)c1ccc(Cl)cc1 [Compound 152] |  |  |  | pIC50 [4]: 7.35
42 | Cc1ccnc(N2CCC(C(=O)N3CCCCc4cc(Cl)ccc43)CC2)n1 [Compound 180] |  |  |  | pIC50 [4]: 7.77
43 | N#Cc1ccnc(N2CCC(C(=O)N3CCCCc4cc(Cl)ccc43)CC2)n1 [Compound 181] |  |  |  | pIC50 [4]: 7.09
44 | O=C(C1CCN(c2cc(C(F)(F)F)ccn2)CC1)N1CCCCc2cc(Cl)ccc21 [Compound 178] |  |  |  | pIC50 [4]: 7.77
45 | O=C(N1CCN(c2ccccn2)CC1)N1CCCCc2cc(Cl)ccc21 [Compound 122] |  |  |  | pIC50 [4]: 7.10
